Experiments:
Assay in all cases: radiometric filter-binding kinase assay
MKNK2 (human) = MKNK2 (human) (UniProt Q9HBH9)
MKNK1 (human) = MKNK1 (human) (UniProt Q9BUB5)
PHKG1 (human) = PHKG1 (human) (UniProt Q16816)
CHEK1 (human) = CHEK1 (human) (UniProt O14757)
MAP3K11 (human) = MAP3K11 (human) (UniProt Q16584)
INSR (human) = INSR (human) (UniProt P06213)
NEK6 (human) = NEK6 (human) (UniProt Q9HC98)
DYRK3 (human) = DYRK3 (human) (UniProt O43781)
MAP2K1 (human) = MAP2K1 (human) (UniProt Q02750)
CHEK2 (human) = CHEK2 (human) (UniProt O96017)
[1] = molecular target: PRKAA1 PRKAB2 PRKAG1 (human) (UniProt O43741+Q13131+P54619)
MARK4 (human) = MARK4 (human) (UniProt Q96L34)
RPS6KA5 KD1 KD2 (human) = RPS6KA5 KD1 KD2 (human) (UniProt O75582)
FLT1 (human) = FLT1 (human) (UniProt P17948)
HIPK2 (human) = HIPK2 (human) (UniProt Q9H2X6)
MAPKAPK2 (human) = MAPKAPK2 (human) (UniProt P49137)
DYRK1A (human) = DYRK1A (human) (UniProt Q13627)
TTK (human) = TTK (human) (UniProt P33981)
MAP3K9 (human) = MAP3K9 (human) (UniProt P80192)
MAPK3 (human) = MAPK3 (human) (UniProt P27361)
AURKB (human) = AURKB (human) (UniProt Q96GD4)
GCK (human) = GCK (human) (UniProt Q12851)
ERBB4 (human) = ERBB4 (human) (UniProt Q15303)
[2] = tested on: AKT1 (human), P31749 [S473D]
IRAK4 (human) = IRAK4 (human) (UniProt Q9NWZ3)
EPHA2 (human) = EPHA2 (human) (UniProt P29317)
MAPK12 (human) = MAPK12 (human) (UniProt P53778)
CDK2 CCNA2 (human) = CDK2 CCNA2 (human) (UniProt P20248+P24941)
BRSK2 (human) = BRSK2 (human) (UniProt Q8IWQ3)

Sequence of INSR (human) (P06213 whole entry, looked up): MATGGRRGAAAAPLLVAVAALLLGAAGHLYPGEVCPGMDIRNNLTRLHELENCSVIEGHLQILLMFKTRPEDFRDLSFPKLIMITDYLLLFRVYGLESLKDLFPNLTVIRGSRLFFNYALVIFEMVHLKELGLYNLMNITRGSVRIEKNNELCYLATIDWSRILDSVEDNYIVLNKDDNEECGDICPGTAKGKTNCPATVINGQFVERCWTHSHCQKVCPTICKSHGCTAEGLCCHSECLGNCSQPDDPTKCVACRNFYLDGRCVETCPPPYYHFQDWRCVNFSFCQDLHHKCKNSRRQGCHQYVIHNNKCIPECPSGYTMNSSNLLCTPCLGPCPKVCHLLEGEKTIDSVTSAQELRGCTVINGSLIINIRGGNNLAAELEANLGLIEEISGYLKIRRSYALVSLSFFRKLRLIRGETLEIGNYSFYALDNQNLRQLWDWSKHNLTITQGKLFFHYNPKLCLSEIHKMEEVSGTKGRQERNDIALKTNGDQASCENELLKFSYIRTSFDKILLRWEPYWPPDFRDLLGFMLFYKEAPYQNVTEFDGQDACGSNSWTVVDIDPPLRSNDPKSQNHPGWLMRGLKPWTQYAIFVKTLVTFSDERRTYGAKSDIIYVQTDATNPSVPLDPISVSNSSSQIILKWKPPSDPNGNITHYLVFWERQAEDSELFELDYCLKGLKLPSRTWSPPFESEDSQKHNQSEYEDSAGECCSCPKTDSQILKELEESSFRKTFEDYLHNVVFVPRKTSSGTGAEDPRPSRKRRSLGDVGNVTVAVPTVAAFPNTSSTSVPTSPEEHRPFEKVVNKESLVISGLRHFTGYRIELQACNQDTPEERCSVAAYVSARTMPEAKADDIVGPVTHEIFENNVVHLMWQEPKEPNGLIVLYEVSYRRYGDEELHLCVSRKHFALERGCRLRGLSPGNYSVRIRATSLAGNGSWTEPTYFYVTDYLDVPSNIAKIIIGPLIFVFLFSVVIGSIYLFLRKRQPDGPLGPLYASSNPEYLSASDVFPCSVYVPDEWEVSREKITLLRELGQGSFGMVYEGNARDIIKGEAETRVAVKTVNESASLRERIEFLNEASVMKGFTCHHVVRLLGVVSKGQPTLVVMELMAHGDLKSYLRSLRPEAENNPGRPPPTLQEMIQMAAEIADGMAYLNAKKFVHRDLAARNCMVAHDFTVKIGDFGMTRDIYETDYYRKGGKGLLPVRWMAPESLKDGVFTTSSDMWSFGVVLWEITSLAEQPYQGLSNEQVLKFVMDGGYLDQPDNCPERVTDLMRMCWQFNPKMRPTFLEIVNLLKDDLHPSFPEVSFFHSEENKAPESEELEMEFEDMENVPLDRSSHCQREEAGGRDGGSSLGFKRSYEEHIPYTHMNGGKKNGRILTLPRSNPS
Sequence of AKT1 (human), P31749 [S473D] (P31749 whole entry S473D, looked up): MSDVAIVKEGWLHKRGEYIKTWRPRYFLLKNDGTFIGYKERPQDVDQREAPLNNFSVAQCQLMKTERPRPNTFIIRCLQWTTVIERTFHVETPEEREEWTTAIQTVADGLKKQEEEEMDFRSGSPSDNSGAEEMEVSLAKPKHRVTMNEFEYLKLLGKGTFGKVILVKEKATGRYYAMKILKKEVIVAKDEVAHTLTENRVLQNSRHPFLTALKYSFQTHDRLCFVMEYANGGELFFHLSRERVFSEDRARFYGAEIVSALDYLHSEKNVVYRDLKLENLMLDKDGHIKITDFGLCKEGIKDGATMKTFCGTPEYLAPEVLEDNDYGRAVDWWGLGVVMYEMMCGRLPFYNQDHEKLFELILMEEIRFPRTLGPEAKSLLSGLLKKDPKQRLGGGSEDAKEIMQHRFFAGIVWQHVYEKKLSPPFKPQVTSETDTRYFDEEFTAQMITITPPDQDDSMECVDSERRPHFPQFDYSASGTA
Sequence of MAPK12 (human) (P53778 whole entry, looked up): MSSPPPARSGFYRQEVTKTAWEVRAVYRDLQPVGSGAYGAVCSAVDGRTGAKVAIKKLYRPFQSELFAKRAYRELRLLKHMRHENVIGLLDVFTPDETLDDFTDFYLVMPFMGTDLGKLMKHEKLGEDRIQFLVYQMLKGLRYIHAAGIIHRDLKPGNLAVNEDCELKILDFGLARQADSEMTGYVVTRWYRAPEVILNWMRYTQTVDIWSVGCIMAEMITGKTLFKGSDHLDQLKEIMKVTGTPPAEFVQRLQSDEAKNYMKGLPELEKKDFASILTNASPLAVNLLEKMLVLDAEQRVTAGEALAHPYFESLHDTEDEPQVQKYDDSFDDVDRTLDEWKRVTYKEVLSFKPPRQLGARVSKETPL
Sequence of MARK4 (human) (Q96L34 whole entry, looked up): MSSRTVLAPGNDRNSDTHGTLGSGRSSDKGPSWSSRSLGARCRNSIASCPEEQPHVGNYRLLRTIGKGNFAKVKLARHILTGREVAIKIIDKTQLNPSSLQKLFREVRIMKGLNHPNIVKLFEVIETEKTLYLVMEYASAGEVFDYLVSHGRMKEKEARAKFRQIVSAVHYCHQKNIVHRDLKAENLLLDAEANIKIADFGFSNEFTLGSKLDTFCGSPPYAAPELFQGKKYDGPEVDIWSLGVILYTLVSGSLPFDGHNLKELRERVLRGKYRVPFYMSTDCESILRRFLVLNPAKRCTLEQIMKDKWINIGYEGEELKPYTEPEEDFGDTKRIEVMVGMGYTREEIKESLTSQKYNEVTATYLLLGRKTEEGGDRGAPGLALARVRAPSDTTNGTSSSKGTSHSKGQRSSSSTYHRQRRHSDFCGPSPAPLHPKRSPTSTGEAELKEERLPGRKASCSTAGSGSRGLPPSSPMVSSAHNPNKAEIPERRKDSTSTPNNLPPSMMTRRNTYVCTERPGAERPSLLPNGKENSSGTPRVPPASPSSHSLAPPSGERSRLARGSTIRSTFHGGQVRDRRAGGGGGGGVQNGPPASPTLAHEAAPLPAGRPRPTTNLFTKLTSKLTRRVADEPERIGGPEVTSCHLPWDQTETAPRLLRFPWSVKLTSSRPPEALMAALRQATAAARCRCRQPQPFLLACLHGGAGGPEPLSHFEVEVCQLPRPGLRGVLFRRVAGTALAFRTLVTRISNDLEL
Sequence of AURKB (human) (Q96GD4 whole entry, looked up): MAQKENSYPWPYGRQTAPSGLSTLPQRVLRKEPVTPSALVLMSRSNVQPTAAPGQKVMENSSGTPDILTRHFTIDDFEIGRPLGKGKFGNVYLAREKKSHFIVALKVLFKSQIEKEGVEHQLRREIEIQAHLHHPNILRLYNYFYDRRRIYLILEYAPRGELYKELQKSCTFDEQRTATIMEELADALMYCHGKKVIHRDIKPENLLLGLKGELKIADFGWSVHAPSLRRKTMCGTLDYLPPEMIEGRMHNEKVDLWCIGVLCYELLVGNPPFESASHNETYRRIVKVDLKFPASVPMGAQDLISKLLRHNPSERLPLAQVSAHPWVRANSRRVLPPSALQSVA
Sequence of MAP2K1 (human) (Q02750 whole entry, looked up): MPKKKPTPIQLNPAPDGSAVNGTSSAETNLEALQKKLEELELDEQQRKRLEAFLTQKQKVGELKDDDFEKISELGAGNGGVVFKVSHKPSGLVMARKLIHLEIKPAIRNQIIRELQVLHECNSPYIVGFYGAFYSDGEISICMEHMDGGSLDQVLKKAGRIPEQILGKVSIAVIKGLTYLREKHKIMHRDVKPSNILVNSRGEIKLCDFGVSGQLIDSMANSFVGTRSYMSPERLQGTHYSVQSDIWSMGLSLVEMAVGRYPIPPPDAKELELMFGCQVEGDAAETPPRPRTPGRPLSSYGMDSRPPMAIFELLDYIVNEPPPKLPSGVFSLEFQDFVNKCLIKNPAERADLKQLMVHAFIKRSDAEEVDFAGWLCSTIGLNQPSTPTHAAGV
Sequence of EPHA2 (human) (P29317 whole entry, looked up): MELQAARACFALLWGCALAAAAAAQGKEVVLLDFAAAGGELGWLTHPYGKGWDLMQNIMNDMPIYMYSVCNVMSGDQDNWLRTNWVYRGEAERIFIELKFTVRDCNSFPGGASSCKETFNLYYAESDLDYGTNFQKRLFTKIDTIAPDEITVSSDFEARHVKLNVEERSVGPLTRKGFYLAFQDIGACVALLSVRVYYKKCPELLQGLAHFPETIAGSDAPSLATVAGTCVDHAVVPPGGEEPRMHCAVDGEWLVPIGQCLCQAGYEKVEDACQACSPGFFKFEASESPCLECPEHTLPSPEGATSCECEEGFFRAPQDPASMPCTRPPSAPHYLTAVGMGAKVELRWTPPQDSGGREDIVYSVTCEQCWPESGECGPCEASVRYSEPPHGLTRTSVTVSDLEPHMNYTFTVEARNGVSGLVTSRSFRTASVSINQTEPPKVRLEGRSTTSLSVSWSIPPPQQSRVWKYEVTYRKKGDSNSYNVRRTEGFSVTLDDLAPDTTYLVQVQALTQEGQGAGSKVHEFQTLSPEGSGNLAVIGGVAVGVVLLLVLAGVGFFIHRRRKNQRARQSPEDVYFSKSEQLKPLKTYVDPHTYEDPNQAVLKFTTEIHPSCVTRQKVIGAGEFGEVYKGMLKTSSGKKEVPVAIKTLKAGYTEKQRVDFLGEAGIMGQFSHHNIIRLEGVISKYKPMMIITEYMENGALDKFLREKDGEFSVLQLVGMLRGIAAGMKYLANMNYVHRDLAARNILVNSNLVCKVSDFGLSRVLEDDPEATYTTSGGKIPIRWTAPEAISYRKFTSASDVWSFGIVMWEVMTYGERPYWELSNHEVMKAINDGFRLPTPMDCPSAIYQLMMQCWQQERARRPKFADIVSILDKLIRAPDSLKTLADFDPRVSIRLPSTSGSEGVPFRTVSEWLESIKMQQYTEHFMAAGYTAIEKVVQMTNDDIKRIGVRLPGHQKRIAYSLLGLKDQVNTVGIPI
Sequence of NEK6 (human) (Q9HC98 whole entry, looked up): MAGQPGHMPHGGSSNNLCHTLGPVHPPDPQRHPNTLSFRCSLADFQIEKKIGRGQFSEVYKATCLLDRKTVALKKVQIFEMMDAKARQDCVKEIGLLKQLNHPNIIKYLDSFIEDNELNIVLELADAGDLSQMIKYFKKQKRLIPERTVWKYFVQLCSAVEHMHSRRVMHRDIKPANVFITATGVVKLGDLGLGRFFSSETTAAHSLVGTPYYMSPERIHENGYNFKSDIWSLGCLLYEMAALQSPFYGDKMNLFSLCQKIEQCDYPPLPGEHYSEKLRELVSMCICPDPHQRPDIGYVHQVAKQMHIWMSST

## CNc1nc(-c2ccc3c(N)n[nH]c3c2)cc(N2C[C@@H](C(=O)NC3CCCCC3)CC[C@H]2C)n1
MKNK2 (human); compound 0.01 µM
  residual activity: 91%
MKNK2 (human); compound 0.1 µM
  residual activity: 100%
MKNK2 (human); compound 1.0 µM
  residual activity: 106%
MKNK1 (human); compound 0.01 µM
  residual activity: 106%
MKNK1 (human); compound 0.1 µM
  residual activity: 108%
MKNK1 (human); compound 1.0 µM
  residual activity: 111%
PHKG1 (human); compound 0.01 µM
  residual activity: 106%
PHKG1 (human); compound 0.1 µM
  residual activity: 108%
PHKG1 (human); compound 1.0 µM
  residual activity: 103%
CHEK1 (human); compound 0.01 µM
  residual activity: 111%
CHEK1 (human); compound 0.1 µM
  residual activity: 106%
CHEK1 (human); compound 1.0 µM
  residual activity: 104%
MAP3K11 (human); compound 0.01 µM
  residual activity: 100%
MAP3K11 (human); compound 0.1 µM
  residual activity: 110%
MAP3K11 (human); compound 1.0 µM
  residual activity: 87%
INSR (human); compound 0.01 µM
  residual activity: 101%
INSR (human); compound 0.1 µM
  residual activity: 103%
INSR (human); compound 1.0 µM
  residual activity: 102%
NEK6 (human); compound 0.01 µM
  residual activity: 98%
NEK6 (human); compound 0.1 µM
  residual activity: 101%
NEK6 (human); compound 1.0 µM
  residual activity: 97%
DYRK3 (human); compound 0.01 µM
  residual activity: 100%
DYRK3 (human); compound 0.1 µM
  residual activity: 103%
DYRK3 (human); compound 1.0 µM
  residual activity: 93%
MAP2K1 (human); compound 0.01 µM
  residual activity: 86%
MAP2K1 (human); compound 0.1 µM
  residual activity: 101%
MAP2K1 (human); compound 1.0 µM
  residual activity: 84%
CHEK2 (human); compound 0.01 µM
  residual activity: 129%
CHEK2 (human); compound 0.1 µM
  residual activity: 121%
[1]; compound 0.01 µM
  residual activity: 107%
[1]; compound 0.1 µM
  residual activity: 111%
[1]; compound 1.0 µM
  residual activity: 87%
MARK4 (human); compound 0.01 µM
  residual activity: 106%
MARK4 (human); compound 0.1 µM
  residual activity: 114%
MARK4 (human); compound 1.0 µM
  residual activity: 102%
RPS6KA5 KD1 KD2 (human); compound 0.01 µM
  residual activity: 102%
RPS6KA5 KD1 KD2 (human); compound 0.1 µM
  residual activity: 100%
RPS6KA5 KD1 KD2 (human); compound 1.0 µM
  residual activity: 94%
FLT1 (human); compound 0.01 µM
  residual activity: 98%
FLT1 (human); compound 0.1 µM
  residual activity: 108%
FLT1 (human); compound 1.0 µM
  residual activity: 89%
HIPK2 (human); compound 0.01 µM
  residual activity: 119%
HIPK2 (human); compound 0.1 µM
  residual activity: 124%
HIPK2 (human); compound 1.0 µM
  residual activity: 113%
MAPKAPK2 (human); compound 0.01 µM
  residual activity: 104%
MAPKAPK2 (human); compound 0.1 µM
  residual activity: 111%
MAPKAPK2 (human); compound 1.0 µM
  residual activity: 101%
DYRK1A (human); compound 0.01 µM
  residual activity: 102%
DYRK1A (human); compound 0.1 µM
  residual activity: 107%
DYRK1A (human); compound 1.0 µM
  residual activity: 103%
TTK (human); compound 0.01 µM
  residual activity: 90%
TTK (human); compound 0.1 µM
  residual activity: 98%
TTK (human); compound 1.0 µM
  residual activity: 82%
MAP3K9 (human); compound 0.01 µM
  residual activity: 110%
MAP3K9 (human); compound 0.1 µM
  residual activity: 111%
MAP3K9 (human); compound 1.0 µM
  residual activity: 107%
MAPK3 (human); compound 0.01 µM
  residual activity: 93%
MAPK3 (human); compound 0.1 µM
  residual activity: 106%
MAPK3 (human); compound 1.0 µM
  residual activity: 94%
AURKB (human); compound 0.01 µM
  residual activity: 105%
AURKB (human); compound 0.1 µM
  residual activity: 106%
AURKB (human); compound 1.0 µM
  residual activity: 83%
GCK (human); compound 0.01 µM
  residual activity: 109%
GCK (human); compound 0.1 µM
  residual activity: 116%
GCK (human); compound 1.0 µM
  residual activity: 101%
ERBB4 (human); compound 0.01 µM
  residual activity: 106%
ERBB4 (human); compound 0.1 µM
  residual activity: 107%
ERBB4 (human); compound 1.0 µM
  residual activity: 106%
[2]; compound 0.01 µM
  residual activity: 179%
[2]; compound 0.1 µM
  residual activity: 117%
[2]; compound 1.0 µM
  residual activity: 97%
IRAK4 (human); compound 0.01 µM
  residual activity: 109%
IRAK4 (human); compound 0.1 µM
  residual activity: 112%
IRAK4 (human); compound 1.0 µM
  residual activity: 106%
EPHA2 (human); compound 0.01 µM
  residual activity: 110%
EPHA2 (human); compound 0.1 µM
  residual activity: 118%
EPHA2 (human); compound 1.0 µM
  residual activity: 114%
MAPK12 (human); compound 0.01 µM
  residual activity: 109%
MAPK12 (human); compound 0.1 µM
  residual activity: 110%
MAPK12 (human); compound 1.0 µM
  residual activity: 106%
CDK2 CCNA2 (human); compound 0.01 µM
  residual activity: 104%
CDK2 CCNA2 (human); compound 0.1 µM
  residual activity: 101%
CDK2 CCNA2 (human); compound 1.0 µM
  residual activity: 105%
BRSK2 (human); compound 0.01 µM
  residual activity: 114%
BRSK2 (human); compound 0.1 µM
  residual activity: 110%

— the kinase profiling compilation of Christmann-Franck et al. (2016)
